# Literature values as cited in patent publication US20220016058A1, “PHARMACEUTICAL COMPOSITION CONTAINING TAMSULOSIN HYDROCHLORIDE WITH EXCELLENT ACID RESISTANCE AND PREPARATION METHOD THEREFOR” (HANMI PHARM. CO., LTD., priority 2018, published 2022).
# Structures can show the parent of a compound that is named as a salt.
smiles,measurement,value
"CCOc1ccccc1OCCN[C@H](C)Cc1ccc(OC)c(S(N)(=O)=O)c1 [tamsulosin hydrochloride, Tamsulosin hydrochloride]",Solubility in water,dissolving a little in water
